Data set [1] has as its system human dermal fibroblasts (hDFs). The data set is described as follows: 2D cell morphology by bright field transmission microscopy. The data set is classed as cell-based. To be noted: positive control, 1% in media, 24 hour incubation.
Excerpt: Images were taken with a Motic AE2000 inverted microscope in bright field transmission through the bottom of transparent 96 well plates. Images from 2D cell culture were processed in GNU Image Manipulation Program V 2.10.12. Contrast was enhanced by changing light and dark levels to maximize the dynamic range of the image. The illumination artifacts were removed by creating a duplicate image on a separate layer and blurring it with a Gaussian blur strength 12.0. This layer was placed below the normal layer, and the two layers were mixed in the “Grain Extract” mixing mode. This process inverts the colors, so the color was inverted again to restore the original orientation.
Cellular morphology is an independent method of assessing cellular health. When healthy, cells like hDFs will adhere to flat plates in 2D culture and multiply rapidly, until they form a confluent layer. The pressure from surrounding cells tends to cause the cells to adopt an elongated and tubular morphology, often aligned with their neighboring cells. When cells are damaged, they will often suffer cytoskeletal damage and will lose their elongated morphology. Dead HDFs will be at the extreme end of this trend, appearing as very small spheres, devoid of cytoskeleton entirely.
For data set [2] the test system is unchanged. Put plainly: Fluorescence microscopy of tattooed 3D skin-simulating scaffolds. The data set is classed as cell-based. To be noted: 7 days after tattooing, phalloidin and DAPI staining. The procedure:
Cell-laden 3D scaffolds were fixed in a 2% formalin solution in PBS for 2 hours with gentle oscillatory mixing. All subsequent washing steps were performed for 30 minutes with oscillatory mixing with the indicated solution. The formalin solution was then decanted, and the scaffolds were washed 3 times with DI water. The cell membranes were permeabilized by washing the scaffolds with acetone solution (50% v/v acetone in 1×PBS) for 30 minutes. The samples were then washed 3 times with PBS-T (1×PBS, […]), then blocked with 1 mg/mL BSA in PBS-T (1×PBS, 0.1% Triton X-100). Actin was stained with phalloidin-488 (Invitrogen A12379) for 1 hour, then washed 3 times with 1×PBS. Nuclei were stained with DAPI (Invitrogen D3571) for 30 minutes then washed with PBS 3 times. Scaffolds were stored in 1×PBS at 4 C until imaged.
Fixed and stained samples as well as tattooed imaging phantoms were imaged with a Keyence BZ-X710 all-in-one fluorescence microscope. The DAPI filter channel (ex/em 355/450) was used to image both the DAPI stain, fluorescent pyrazoline-laden microparticles, and aqueous SilMA-pyrazoline tattoo inks. The GFP channel (ex/em 488/510) was used to image the phalloidin-stained actin.
Silk fibroin solution (5% w/w) was pipetted into a 24 well plate (1.5 mL per well) and frozen at −20 C. […]

Data set [3] has the same test system. The data set is described as follows: 2D metabolic toxicity assay (MTT). To be noted: positive control, 1% in media, 24 hours.

Take Triton X-100: in data set [1], the cellular morphology entry is “small hard spheres indicative of dead cells”. Besides, in data set [2], the “cell morphology / localized cytotoxicity in 3D scaffold” value is “only background fluorescence”. Besides, the “metabolic capacity (MTT)” value in data set [3] is on record as “completely destroyed the metabolic capacity of the cells”.

The values above are taken from US20260124324A1, “PHOTOCLICK CHEMISTRY OF SILK FOR TEMPORARY UV TATTOOS” (Trustees of Tufts College, priority 2023, published 2026).
